In ChEMBL document CHEMBL1141321, “Amphidinolides B6 and B7, cytotoxic macrolides from a symbiotic dinoflagellate Amphidinium species” (J Nat Prod, 2007) one finds IC50 data, which are given here for three compounds.

SMILES strings stand for the structures. ≈ marks a conversion by molar mass, not a printed value.

The assay has as its system DG-75. The assay is described as follows: Cytotoxicity against human DG75 cells. It counts as functional, cell-based.
Broadly, the IC50 is the point on the concentration scale where inhibition reaches its midpoint. Read a low IC50 as greater potency in that assay. Consider `C=C1/C=C(\C)[C@@H](C)C[C@H](O)CC(=O)[C@H](O)[C@@H](O)[C@H](C)C[C@H](C)OC(=O)[C@@H](C)[C@@H](O)CCCC[C@@H]2O[C@H]2C[C@H](C)C1` [AMPHIDINOLIDE B6], for which the IC50 was 0.02 µg/mL (≈ 0.0353 µM).

Compound `C=C1/C=C(\C)[C@@H](C)C[C@H](O)CC(=O)[C@H](O)[C@@H](O)[C@H](C)C[C@H](C)OC(=O)/C(C)=C/CC/C=C/[C@@H]2O[C@H]2C[C@H](C)C1` [AMPHIDINOLIDE B7] returned an IC50 of 0.4 µg/mL (≈ 0.732 µM).

Turning to `C=C1/C=C(\C)[C@@H](C)C[C@H](O)CC(=O)[C@H](O)[C@@H](O)[C@H](C)C[C@H](CO)OC(=O)/C(C)=C/CC/C=C/[C@@H]2O[C@H]2C[C@H](C)C1` [AMPHIDINOLIDE H], the IC50 was found to be 0.001 µg/mL (≈ 0.00178 µM).
